From patent US8729054B2, “3-desoxy-2-methylene-vitamin D analogs and their uses” (Wisconsin Alumni Research Foundation, priority 2011, dated 2014)
Entries after “also recorded” stand apart in the source; their conditions may differ.

Legend:
[1] = biological target: T1, full-length recombinant rat vitamin D receptor (Rattus norvegicus, UniProt P13053); assay: Vitamin D receptor binding, competition with [3H]-1,25(OH)2D3; details: full-length recombinant rat VDR; for Ki: 1 nM radioligand
T1 construct: Full-length recombinant rat receptor was expressed in E. coli BL21 (DE3) Codon Plus RIL cells; histidine tag (C); made in house; host or cells: E. coli BL21 (DE3) Codon Plus RIL
T1 sequence (P13053 1-423): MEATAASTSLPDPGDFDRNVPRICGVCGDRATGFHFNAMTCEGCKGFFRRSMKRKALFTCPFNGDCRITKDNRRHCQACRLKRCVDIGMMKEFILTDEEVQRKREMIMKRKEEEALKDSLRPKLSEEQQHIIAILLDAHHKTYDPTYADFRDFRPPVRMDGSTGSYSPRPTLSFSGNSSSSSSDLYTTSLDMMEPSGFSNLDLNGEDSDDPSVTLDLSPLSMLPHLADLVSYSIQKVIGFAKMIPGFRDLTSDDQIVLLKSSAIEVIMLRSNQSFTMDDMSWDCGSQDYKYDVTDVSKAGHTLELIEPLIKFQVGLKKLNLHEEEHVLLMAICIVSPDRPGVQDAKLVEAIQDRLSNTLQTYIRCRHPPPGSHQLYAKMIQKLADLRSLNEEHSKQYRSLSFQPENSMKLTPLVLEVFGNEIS
Method: Full-length recombinant rat receptor was expressed in E. coli BL21 (DE3) Codon Plus RIL cells and purified to homogeneity using two different column chromatography systems. The first system was a nickel affinity resin that utilizes the C-terminal histidine tag on this protein. The protein that was eluted from this resin was further purified using ion exchange chromatography (S-Sepharose Fast Flow). Aliquots of the purified protein were quick frozen in liquid nitrogen and stored at −80° C. until use. For use in binding assays, the protein was diluted in TEDK50 (50 mM Tris, 1.5 mM EDTA, pH 7.4, 5 mM DTT, 150 mM KCI) with 0.1% Chaps detergent. The receptor protein and ligand concentration was optimized such that no more than 20% of the added radiolabeled ligand was bound to the receptor.
Radiolabeled and unlabeled ligands were added to 100 mcl of the diluted protein at a final ethanol concentration of ≦10%, mixed and incubated overnight on ice to reach binding equilibrium. The following day, 100 mcl of hydroxylapatite slurry (50%) was added to each tube and mixed at 10-minute intervals for 30 minutes. The hydroxylapaptite was collected by centrifugation and then washed three times with Tris-EDTA buffer (50 mM Tris, 1.5 mM EDTA, pH 7.4) containing 0.5% Titron X-100. After the final wash, the pellets were transferred to scintillation vials containing 4 ml of Biosafe II scintillation cocktail, mixed and placed in a scintillation counter. Total binding was determined from the tubes containing only radiolabeled ligand.

[2] = test system: Human promyelocytic leukemia (HL60) cells; assay: HL-60 differentiation (nitro blue tetrazolium reduction); type: cell-based; details: for EC50: HL60 cells, four days after treatment, NBT reduction
Method: The study drugs were dissolved in ethanol and the concentrations determined using UV spectrophotometry. Serial dilutions were prepared so that a range of drug concentrations could be tested without changing the final concentration of ethanol (≦0.2%) present in the cell cultures.
Human promyelocytic leukemia (HL60) cells were grown in RPMI-1640 medium containing 10% fetal bovine serum. The cells were incubated at 37° C. in the presence of 5% CO2.
HL60 cells were plated at 1.2×10^5 cells/ml. Eighteen hours after plating, cells in duplicate were treated with drug. Four days later, the cells were harvested and a nitro blue tetrazolium reduction assay was performed (Collins et al., 1979; J. Exp. Med. 149:969-974). The percentage of differentiated cells was determined by counting a total of 200 cells and recording the number that contained intracellular black-blue formazan deposits. Verification of differentiation to monocytic cells was determined by measuring phagocytic activity (data not shown).

[3] = test system: 24-hydroxylase (24Ohase) gene promoter; assay: In vitro transcription assay, luciferase reporter in ROS 17/2.8 (bone) cells; type: cell-based; details: for transcriptional activity in bone cells as compared to 1α,25-dihydroxyvitamin D3: 24-hydroxylase gene; for EC50: ROS 17/2.8 cells, luciferase, sixteen hours after dosing, read-out: EC50, transcriptional activity in bone cells (24-hydroxylase gene)
Method: Transcription activity was measured in ROS 17/2.8 (bone) cells that were stably transfected with a 24-hydroxylase (24Ohase) gene promoter upstream of a luciferase reporter gene (Arbour et al., 1998). Cells were given a range of doses. Sixteen hours after dosing the cells were harvested and luciferase activities were measured using a luminometer. RLU=relative luciferase units.

vitamin D-deficient rats [4] = assay: Bone calcium mobilization (serum calcium); type: in vivo, rat; details: for bone calcium mobilization activity as compared to 1,25(OH)2D3: rats on low calcium diet (0.02%), four consecutive ip doses
Method: (§1) Male, weanling Sprague-Dawley rats were placed on Diet 11 (Suda et al, J. Nutr. 100:1049, 1970) (0.47% Ca)+vitamins AEK for one week followed by Diet 11 (0.02% Ca)+vitamins AEK for 3 weeks. The rats were then switched to the same diet containing 0.47% Ca for one week followed by two weeks on the same diet containing 0.02% Ca. Dose administration began during the last week on 0.02% calcium diet. Four consecutive ip doses were given approximately 24 hours apart. Twenty-four hours after the last dose, blood was collected from the severed neck and the concentration of serum calcium determined by atomic absorption spectrometry as a measure of bone calcium mobilization. The first 10 cm of the intestine was also collected for intestinal calcium transport analysis using the everted gut sac method.

vitamin D-deficient rats [5] = assay: Intestinal calcium transport (everted gut sac method); type: in vivo, rat; details: rats on low calcium diet (0.02%), four consecutive ip doses
Method: as §1

With `C=C1CC/C(=C/C=C2\CCC[C@]3(C)[C@@H]([C@H](C)CCCC(C)(C)O)CC[C@@H]23)C(=C)[C@H]1O` [3D-QM, (20R)-3-desoxy-1α,25-dihydroxy-2-methylene-vitamin D3] as the compound, how does the “affinity to the receptor as compared to 1,25(OH)2D3” value [1] read?
Its value is “about the same affinity”.

What about the Ki [1] of the same compound?
Its Ki is 0.4 nM.

And the “potency on HL-60 cell differentiation as compared to 1,25(OH)2D3” value [2]?
Its value is “about the same potency as 1,25(OH)2D3”.

What about the EC50 ([2]; Homo sapiens, HL-60, 96 h) of the same compound?
Its EC50 is 1 nM.

What about the “transcriptional activity in bone cells as compared to 1α,25-dihydroxyvitamin D3” value [3] of the same compound?
Its value is “about the same transcriptional activity”.

What about the EC50 [3] of the same compound?
The EC50 was 0.2 nM.

And the “mobilization of bone calcium as compared to native hormone at the same dose” value (vitamin D-deficient rats [4]; 87 pmol/day for 4 consecutive days)?
The value was “only slightly less mobilization of bone calcium than the native hormone”.

And the “bone calcium mobilization activity as compared to 1,25(OH)2D3” value (vitamin D-deficient rats [4])?
The value was “about the same potency as the native hormone”.

With `C=C1CC/C(=C/C=C2\CCC[C@]3(C)[C@@H]([C@@H](C)CCCC(C)(C)O)CC[C@@H]23)C(=C)[C@H]1O` [3D-QMS, (20S)-3-desoxy-1α,25-dihydroxy-2-methylene-vitamin D3] as the compound, how does the “affinity to the receptor as compared to 1,25(OH)2D3” value [1] read?
The value was “about the same affinity”.

And the Ki [1]?
The Ki was 0.3 nM.

What about the EC50 ([2]; Homo sapiens, HL-60, 96 h) of the same compound?
Its EC50 is 0.08 nM.

What about the “potency on HL-60 cell differentiation relative to 1,25(OH)2D3” value ([2]; compared with 1,25(OH)2D3) of the same compound?
Its value is “about 40 times”.

What about the “transcriptional activity in bone cells as compared to 1α,25-dihydroxyvitamin D3” value [3] of the same compound?
Its value is “about the same transcriptional activity”.

And the EC50 [3]?
The EC50 was 0.03 nM.

What about the “intestinal calcium transport activity as compared to 1,25(OH)2D3” value (vitamin D-deficient rats [5]) of the same compound?
Its value is “more potent than 1,25(OH)2D3”.

What about the “mobilization of bone calcium as compared to native hormone at the same dose” value (vitamin D-deficient rats [4]; 780 pmol/day for 4 consecutive days) of the same compound?
The value was “higher mobilization of bone calcium than the native hormone”.

What about the “bone calcium mobilization activity as compared to 1,25(OH)2D3” value (vitamin D-deficient rats [4]) of the same compound?
The value was “more potent than the native hormone; also recorded: significantly more activity in mobilizing calcium from bone than 1,25(OH)2D3”.

Which EC50 [2] does the source give for `C=C1/C(=C\C=C2/CCC[C@]3(C)[C@@H]([C@H](C)CCCC(C)(C)O)CC[C@@H]23)C[C@@H](O)C[C@@H]1O` [1α,25-dihydroxyvitamin D3, reference compound] here?
The EC50 was 3 nM.

And the “serum calcium levels” value (vitamin D-deficient rats [4]; at the dosages tested)?
Its value is “increased serum calcium levels”.
